Results from ChEMBL document CHEMBL2385034, “Discovery, synthesis and in combo studies of a tetrazole analogue of clofibric acid as a potent hypoglycemic agent” (2013).
One block for each molecule: values may come before it. Active and inactive are the calls of the source. No cut-off for these calls is given here.

Tests used:
[1] = biological target: 11-beta-hydroxysteroid dehydrogenase 1 (Homo sapiens) (UniProt P28845); experiment: Inhibition of full-length human 11beta-HSD1 expressed in HEK293 cells at 10 uM after 2 hrs by scintillation proximity assay relative to control; format: cell-based
Rattus norvegicus [2] = organism: Rattus norvegicus; experiment: Hypoglycemic activity in STZ-nicotinamide-induced Wistar rat diabetic model after 1 to 7 hrs; format: functional, organism-based
Rattus norvegicus [3] = experiment: Hypoglycemic activity in STZ-nicotinamide-induced Wistar rat diabetic model at 5 mg/kg, po after 1 to 7 hrs; format: functional, organism-based; design: dose 5 mg/kg
[4] = biological target: 11-beta-hydroxysteroid dehydrogenase 1 (Homo sapiens) (UniProt P28845); experiment: Inhibition of full-length human 11beta-HSD1 expressed in HEK293 cells at 10 uM after 2 hrs by scintillation proximity assay relative to clofibrate; format: cell-based
[5] = biological target: 11-beta-hydroxysteroid dehydrogenase 1 (Homo sapiens) (UniProt P28845); experiment: Inhibition of full-length human 11beta-HSD1 expressed in HEK293 cells at 10 uM after 2 hrs by scintillation proximity assay relative to clofibric acid; format: cell-based
Rattus norvegicus [6] = experiment: Hypoglycemic activity in STZ-nicotinamide-induced Wistar rat diabetic model at 50 mg/kg, ig after 1 to 7 hrs relative to control; format: functional; conditions: route intragastric

Sequence of 11-beta-hydroxysteroid dehydrogenase 1 (Homo sapiens) (P28845 whole entry, looked up): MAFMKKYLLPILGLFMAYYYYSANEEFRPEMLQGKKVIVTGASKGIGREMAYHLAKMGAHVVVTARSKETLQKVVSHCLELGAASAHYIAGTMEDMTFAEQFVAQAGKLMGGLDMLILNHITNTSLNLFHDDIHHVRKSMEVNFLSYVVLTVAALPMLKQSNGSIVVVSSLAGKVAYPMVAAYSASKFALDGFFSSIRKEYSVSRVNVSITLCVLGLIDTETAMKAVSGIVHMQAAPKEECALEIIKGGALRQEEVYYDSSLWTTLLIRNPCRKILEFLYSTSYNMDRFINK

inhibition [1]: 19.1%
SMILES: CC(C)(Oc1ccc(Cl)cc1)C(=O)O
Activity (Rattus norvegicus [2]): inactive

inhibition [1]: 18.1%
SMILES: CCOC(=O)C(C)(C)Oc1ccc(Cl)cc1

inhibition [1]: 51.2%
fold change (FC) [4]: 2.5
fold change (FC) [5]: 2.5
SMILES: CC(C)(Oc1ccc(Cl)cc1)C(=O)Nc1nnn[nH]1
Activity (Rattus norvegicus [6]): 16%

Second part, the molecule before the results:

SMILES: CC1(C)[C@@H](OC(=O)CCC(=O)O)CC[C@]2(C)[C@H]3C(=O)C=C4[C@@H]5C[C@@](C)(C(=O)O)CC[C@]5(C)CC[C@@]4(C)[C@]3(C)CC[C@@H]12
inhibition [1]: 78.3%

SMILES: COc1ccc(Cl)cc1C(=O)NCCc1ccc(S(=O)(=O)NC(=O)NC2CCCCC2)cc1
Activity (Rattus norvegicus [3]): Active
